Patent publication US8518466B2 (Shenzhen Hazardous Waste Treatment Station Ltd., priority 2008, dated 2013)

Test system: weaned piglet
Settings: piglets
Method: According to the weight, sex, litter, the 60 weaned piglets were randomly divided into five groups. Group 1 is the control group using corn-soybean meal-dray whey powder diet with adding 150 mg/kg of basic copper chloride but without adding selenium. Group 2 and 3 are testing group using corn-soybean meal-dray whey powder diet with adding 0.3 mg/kg and 0.5 mg/kg of sodium selenite respectively, and adding 150 mg/kg of basic copper chloride. […] The testing period is 35 days, including 7 days of pre-test period and 28 days of formal test period.

## O=[Se](O)O [sodium selenite]
0.3 and 0.5 mg/kg in diet
  selenium level of kidney compared with control group: significantly higher
  selenium level of liver compared with control group: significantly higher
All groups
  copper content in liver among groups: almost the same
